The values that follow are results of earlier work, collected in patent publication US20210000953A1, “USE OF IMMUNE CHECKPOINT INHIBITORS IN CENTRAL NERVOUS SYSTEMS NEOPLASMS” (Bristol-Myers Squibb Company, priority 2014, published 2021).

One data set relates to recurrent GBM. Conditions: single agent, relapsed setting; cited from earlier work.
The conditions of data set [1]: in vivo; cited from earlier work.
The subject of data set [2] is previously treated gliomas. The following applies: NCI 06-C-0064E, cited from earlier work.
In the next data set the test system is previously treated GBM. Conditions: AVF3708g, cited from earlier work.
Another data set has as its system newly diagnosed GBM. Conditions: cited from earlier work.

Bounds are passed on as bounds.

As for `CCc1c2c(nc3ccc(OC(=O)N4CCC(N5CCCCC5)CC4)cc13)-c1cc3c(c(=O)n1C2)COC(=O)[C@]3(O)CC` [irinotecan], the Response rates in the data set on recurrent GBM is at most 15%.

With `Cn1nnc2c(C(N)=O)ncn2c1=O` [temozolomide], in data set [1], the Terminal half-life was 1.2 h.

For bevacizumab, the Objective responses in data set [2] (56 patients with high-grade glioma, 95% CI, 10.9%, 31.3%) is reported as 19.6%. The “Median duration of response” value was 3.9 months in data set [2] (95% CI: 2.4, 17.4) and 4.2 months with previously treated GBM (95% CI: 3.0, 5.7 months). Besides, the “Responses, % of patients” value in the data set on previously treated GBM (WHO radiographic criteria, 95% CI:17.0%, 36.1%) is 25.9%. Moreover, in the data set on newly diagnosed GBM (in vivo), the “Cognitive function and quality of life” value was “reduced cognitive function and quality of life”. Also, the Overall survival entry in the data set with newly diagnosed GBM (newly diagnosed GBM, above standard of care (radiotherapy plus temozolomide)) is reported as “does not significantly increase overall survival”. In the data set with newly diagnosed GBM (newly diagnosed GBM, with radiotherapy plus temozolomide), the Progression-free survival result was “increases progression-free survival”.
